{"source": "patent US8252799B2", "about": "“Hexahydro-1H-4,7-methanoisoindole-1,3-dione compounds” (Merck Sharp & Dohme Corp., priority 2007, dated 2012)", "key": {"5HT1A (native)": {"biological_target": "T1, 5HT1A (native) (Homo sapiens, UniProt P08908)", "T1 construct": "5HT1A (native) 8 nM", "T1 sequence (P08908 1-422)": "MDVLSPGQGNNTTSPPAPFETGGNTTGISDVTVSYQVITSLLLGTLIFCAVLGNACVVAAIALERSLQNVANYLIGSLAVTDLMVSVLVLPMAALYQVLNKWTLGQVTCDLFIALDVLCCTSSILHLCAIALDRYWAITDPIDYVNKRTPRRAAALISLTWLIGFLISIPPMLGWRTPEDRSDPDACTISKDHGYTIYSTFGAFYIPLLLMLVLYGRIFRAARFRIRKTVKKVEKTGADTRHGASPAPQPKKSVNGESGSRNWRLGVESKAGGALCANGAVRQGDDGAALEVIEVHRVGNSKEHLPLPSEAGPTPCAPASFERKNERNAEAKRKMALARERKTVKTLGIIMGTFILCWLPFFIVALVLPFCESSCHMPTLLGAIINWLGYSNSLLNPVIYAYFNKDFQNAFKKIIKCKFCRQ", "assay": "In Vitro Affinity (Ki) on Human Receptors: 5HT1A (native)", "type": "binding", "conditions": "human receptor"}, "α2C [1]": {"biological_target": "T2, α2C (Homo sapiens, UniProt P18825)", "T2 sequence (P18825 1-462)": "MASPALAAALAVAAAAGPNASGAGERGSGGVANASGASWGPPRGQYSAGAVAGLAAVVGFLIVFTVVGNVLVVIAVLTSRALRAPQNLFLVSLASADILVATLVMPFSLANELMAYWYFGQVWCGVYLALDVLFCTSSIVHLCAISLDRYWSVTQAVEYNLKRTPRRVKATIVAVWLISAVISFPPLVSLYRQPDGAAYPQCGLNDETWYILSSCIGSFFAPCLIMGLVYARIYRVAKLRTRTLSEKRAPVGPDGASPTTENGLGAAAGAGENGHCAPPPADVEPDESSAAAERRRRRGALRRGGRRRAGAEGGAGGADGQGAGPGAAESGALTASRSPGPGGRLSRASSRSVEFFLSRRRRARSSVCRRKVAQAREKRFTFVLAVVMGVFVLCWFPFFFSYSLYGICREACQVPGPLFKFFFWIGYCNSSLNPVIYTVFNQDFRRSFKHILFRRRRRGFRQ", "assay": "In Vitro Affinity (Ki) on Human Receptors: α2C", "type": "binding", "conditions": "human receptor"}, "α2A [2]": {"biological_target": "T3, α2A (Homo sapiens, UniProt P08913)", "T3 sequence (P08913 1-465)": "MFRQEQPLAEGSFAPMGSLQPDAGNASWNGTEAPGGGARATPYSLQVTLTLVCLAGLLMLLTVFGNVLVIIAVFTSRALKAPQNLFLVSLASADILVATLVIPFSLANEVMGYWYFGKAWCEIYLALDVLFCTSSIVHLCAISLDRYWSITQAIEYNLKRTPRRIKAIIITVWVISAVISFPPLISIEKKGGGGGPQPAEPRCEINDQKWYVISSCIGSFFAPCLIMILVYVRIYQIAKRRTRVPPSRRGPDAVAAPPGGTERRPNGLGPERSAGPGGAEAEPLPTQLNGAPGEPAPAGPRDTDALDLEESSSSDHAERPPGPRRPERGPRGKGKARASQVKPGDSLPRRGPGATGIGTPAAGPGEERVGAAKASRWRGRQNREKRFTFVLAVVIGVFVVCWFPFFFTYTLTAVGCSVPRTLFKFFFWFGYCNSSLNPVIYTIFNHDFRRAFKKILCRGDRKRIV", "assay": "In Vitro Affinity (Ki) on Human Receptors: α2A", "type": "binding", "conditions": "human receptor"}, "D2 [3]": {"biological_target": "T4, D2 (Homo sapiens, UniProt P14416)", "T4 sequence (P14416 whole entry)": "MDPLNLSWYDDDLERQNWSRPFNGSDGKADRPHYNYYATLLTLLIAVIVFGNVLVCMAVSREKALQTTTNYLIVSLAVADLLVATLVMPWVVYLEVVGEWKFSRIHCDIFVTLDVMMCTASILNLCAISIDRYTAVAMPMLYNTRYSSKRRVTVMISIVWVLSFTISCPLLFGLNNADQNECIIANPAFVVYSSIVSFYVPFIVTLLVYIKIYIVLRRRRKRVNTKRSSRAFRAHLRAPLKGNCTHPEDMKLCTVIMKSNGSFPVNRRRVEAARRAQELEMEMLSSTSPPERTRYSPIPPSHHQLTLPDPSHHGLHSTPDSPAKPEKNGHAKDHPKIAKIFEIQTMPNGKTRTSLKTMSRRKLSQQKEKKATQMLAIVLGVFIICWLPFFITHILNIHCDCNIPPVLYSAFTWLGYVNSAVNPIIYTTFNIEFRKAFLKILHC", "assay": "In Vitro Affinity (Ki) on Human Receptors: D2", "type": "binding", "conditions": "human receptor"}, "5HT2A [4]": {"biological_target": "T5, 5HT2A (Homo sapiens, UniProt P28223)", "T5 sequence (P28223 whole entry)": "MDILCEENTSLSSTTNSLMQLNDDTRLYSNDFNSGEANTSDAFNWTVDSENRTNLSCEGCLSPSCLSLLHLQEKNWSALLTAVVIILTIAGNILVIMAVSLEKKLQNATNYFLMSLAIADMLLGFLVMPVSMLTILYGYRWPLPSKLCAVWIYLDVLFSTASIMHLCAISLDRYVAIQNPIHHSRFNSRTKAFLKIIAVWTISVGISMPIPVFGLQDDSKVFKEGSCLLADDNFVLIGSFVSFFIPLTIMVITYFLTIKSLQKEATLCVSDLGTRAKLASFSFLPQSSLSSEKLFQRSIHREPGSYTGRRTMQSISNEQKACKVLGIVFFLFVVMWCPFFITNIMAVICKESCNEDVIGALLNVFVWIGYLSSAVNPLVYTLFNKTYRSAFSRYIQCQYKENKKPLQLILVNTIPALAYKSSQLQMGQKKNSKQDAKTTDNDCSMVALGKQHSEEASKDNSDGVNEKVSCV", "assay": "In Vitro Affinity (Ki) on Human Receptors: 5HT2A", "type": "binding", "conditions": "human receptor"}, "D3": {"biological_target": "D3 (Homo sapiens, UniProt P35462)", "sequence (P35462 whole entry)": "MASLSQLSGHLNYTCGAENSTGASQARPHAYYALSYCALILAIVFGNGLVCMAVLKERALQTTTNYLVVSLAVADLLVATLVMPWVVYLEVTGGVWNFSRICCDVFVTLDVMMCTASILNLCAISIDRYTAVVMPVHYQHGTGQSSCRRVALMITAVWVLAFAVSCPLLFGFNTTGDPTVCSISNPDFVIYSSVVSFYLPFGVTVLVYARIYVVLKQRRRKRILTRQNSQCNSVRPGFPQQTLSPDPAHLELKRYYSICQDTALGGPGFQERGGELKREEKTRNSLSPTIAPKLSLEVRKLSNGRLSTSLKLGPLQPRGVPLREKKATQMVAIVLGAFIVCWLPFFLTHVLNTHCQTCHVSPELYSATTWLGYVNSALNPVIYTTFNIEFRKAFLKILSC", "assay": "In Vitro Affinity (Ki) on Human Receptors: D3", "type": "binding", "conditions": "human receptor"}, "5HT2C [5]": {"biological_target": "T6, 5HT2C (Homo sapiens, UniProt P28335)", "T6 sequence (P28335 33-458)": "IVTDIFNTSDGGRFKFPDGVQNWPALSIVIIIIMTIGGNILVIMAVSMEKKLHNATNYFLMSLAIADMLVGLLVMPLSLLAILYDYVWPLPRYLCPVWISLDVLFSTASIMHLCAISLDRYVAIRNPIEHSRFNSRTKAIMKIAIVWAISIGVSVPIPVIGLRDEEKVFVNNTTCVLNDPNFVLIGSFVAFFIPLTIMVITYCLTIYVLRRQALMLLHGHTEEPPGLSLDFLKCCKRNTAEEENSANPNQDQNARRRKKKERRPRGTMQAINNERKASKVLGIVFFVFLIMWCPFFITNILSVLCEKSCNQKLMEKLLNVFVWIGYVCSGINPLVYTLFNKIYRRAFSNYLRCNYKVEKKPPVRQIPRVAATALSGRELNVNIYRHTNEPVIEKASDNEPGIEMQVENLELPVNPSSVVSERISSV", "assay": "In Vitro Affinity (Ki) on Human Receptors: 5HT2C", "type": "binding", "conditions": "human receptor"}, "H1 [6]": {"biological_target": "T7, H1 (Homo sapiens, UniProt P35367)", "T7 sequence (P35367 whole entry)": "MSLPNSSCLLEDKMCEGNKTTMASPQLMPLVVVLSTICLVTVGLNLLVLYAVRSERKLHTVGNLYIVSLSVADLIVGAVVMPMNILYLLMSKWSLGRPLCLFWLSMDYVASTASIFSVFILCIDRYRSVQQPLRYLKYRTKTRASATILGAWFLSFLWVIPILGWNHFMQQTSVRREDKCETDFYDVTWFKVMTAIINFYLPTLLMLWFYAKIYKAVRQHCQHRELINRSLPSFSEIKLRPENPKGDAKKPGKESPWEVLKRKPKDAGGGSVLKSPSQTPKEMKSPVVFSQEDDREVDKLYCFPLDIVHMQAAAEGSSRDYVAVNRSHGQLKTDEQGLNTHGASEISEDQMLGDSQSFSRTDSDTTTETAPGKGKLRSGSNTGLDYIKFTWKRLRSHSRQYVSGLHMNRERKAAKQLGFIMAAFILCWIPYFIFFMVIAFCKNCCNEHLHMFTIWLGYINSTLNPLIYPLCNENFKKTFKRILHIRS", "assay": "In Vitro Affinity (Ki) on Human Receptors: H1", "type": "binding", "conditions": "human receptor"}, "D1 [7]": {"biological_target": "T8, D1 (Homo sapiens, UniProt P21728)", "T8 sequence (P21728 whole entry)": "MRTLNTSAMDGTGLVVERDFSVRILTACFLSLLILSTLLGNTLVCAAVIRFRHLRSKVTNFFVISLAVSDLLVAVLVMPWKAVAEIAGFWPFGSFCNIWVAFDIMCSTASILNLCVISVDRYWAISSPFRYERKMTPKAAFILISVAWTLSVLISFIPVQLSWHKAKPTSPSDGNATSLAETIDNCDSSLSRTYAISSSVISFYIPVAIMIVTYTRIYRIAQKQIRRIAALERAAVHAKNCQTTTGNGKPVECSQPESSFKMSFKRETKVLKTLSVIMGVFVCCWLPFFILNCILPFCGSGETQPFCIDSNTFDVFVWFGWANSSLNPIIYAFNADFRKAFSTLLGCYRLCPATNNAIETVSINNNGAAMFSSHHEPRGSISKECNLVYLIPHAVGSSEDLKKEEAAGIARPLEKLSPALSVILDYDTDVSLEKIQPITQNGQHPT", "assay": "In Vitro Affinity (Ki) on Human Receptors: D1", "type": "binding", "conditions": "human receptor"}, "α1A": {"biological_target": "T9, α1A (Homo sapiens, UniProt P35348)", "T9 sequence (P35348 1-466)": "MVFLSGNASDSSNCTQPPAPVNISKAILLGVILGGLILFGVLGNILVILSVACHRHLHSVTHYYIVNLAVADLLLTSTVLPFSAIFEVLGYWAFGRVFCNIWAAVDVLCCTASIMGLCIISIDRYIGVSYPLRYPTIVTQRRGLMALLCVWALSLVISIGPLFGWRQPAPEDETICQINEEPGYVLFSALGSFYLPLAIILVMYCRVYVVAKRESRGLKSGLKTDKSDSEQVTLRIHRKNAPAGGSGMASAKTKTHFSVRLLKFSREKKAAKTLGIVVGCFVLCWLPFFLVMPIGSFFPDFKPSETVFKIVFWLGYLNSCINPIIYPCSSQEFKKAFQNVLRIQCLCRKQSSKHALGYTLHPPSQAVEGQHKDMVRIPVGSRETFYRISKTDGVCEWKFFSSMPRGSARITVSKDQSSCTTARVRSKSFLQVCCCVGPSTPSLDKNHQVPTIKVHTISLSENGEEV", "assay": "In Vitro Affinity (Ki) on Human Receptors: α1A", "type": "binding", "conditions": "human receptor"}, "α1D": {"biological_target": "T10, α1D (Homo sapiens, UniProt P25100)", "T10 sequence (P25100 1-572)": "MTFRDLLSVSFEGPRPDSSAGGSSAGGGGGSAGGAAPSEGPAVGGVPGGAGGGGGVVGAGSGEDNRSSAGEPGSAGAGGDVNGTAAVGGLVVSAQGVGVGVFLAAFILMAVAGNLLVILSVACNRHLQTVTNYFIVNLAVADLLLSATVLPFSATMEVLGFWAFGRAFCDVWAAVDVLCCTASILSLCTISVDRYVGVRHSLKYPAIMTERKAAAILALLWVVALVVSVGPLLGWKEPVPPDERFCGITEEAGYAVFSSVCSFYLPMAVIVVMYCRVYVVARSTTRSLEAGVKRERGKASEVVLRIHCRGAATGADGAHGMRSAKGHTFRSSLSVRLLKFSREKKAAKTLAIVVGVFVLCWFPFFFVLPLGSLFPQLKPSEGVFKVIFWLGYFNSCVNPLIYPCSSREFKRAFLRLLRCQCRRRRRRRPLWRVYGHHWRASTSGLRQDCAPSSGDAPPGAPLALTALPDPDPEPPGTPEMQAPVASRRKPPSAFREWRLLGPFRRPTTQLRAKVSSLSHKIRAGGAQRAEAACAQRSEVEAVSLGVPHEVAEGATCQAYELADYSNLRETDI", "assay": "In Vitro Affinity (Ki) on Human Receptors: α1D", "type": "binding", "conditions": "human receptor"}, "hERG [8]": {"biological_target": "T11, hERG (Homo sapiens, UniProt Q12809)", "T11 sequence (Q12809 whole entry)": "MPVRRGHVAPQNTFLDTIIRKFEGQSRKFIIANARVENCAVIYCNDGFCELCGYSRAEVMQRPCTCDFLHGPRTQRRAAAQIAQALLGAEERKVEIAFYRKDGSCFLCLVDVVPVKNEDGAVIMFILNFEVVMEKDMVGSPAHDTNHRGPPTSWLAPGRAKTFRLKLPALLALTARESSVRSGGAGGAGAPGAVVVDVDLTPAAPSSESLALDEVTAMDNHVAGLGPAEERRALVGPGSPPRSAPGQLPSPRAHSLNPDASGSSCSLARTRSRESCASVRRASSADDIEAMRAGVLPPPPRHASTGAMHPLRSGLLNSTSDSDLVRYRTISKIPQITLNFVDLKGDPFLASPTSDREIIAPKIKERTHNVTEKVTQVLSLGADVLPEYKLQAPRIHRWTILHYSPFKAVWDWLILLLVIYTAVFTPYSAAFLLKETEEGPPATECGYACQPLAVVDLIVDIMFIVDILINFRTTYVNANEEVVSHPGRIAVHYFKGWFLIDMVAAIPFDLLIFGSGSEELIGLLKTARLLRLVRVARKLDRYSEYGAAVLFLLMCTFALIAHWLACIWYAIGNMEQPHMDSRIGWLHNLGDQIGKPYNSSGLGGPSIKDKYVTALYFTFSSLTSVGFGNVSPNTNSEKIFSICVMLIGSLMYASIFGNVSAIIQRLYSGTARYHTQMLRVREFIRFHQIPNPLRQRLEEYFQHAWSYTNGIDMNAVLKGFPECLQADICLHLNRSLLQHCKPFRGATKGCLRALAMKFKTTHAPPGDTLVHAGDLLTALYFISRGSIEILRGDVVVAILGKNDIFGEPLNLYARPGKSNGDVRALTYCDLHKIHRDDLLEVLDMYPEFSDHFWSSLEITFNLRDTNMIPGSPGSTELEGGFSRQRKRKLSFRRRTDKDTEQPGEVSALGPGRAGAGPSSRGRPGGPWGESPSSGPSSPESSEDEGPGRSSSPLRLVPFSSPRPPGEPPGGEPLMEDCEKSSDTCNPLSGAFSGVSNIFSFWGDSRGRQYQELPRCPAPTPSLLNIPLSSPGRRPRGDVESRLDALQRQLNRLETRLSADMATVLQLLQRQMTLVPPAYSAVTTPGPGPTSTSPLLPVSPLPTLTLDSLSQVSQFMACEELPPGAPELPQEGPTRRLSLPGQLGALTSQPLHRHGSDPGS", "assay": "In Vitro Affinity (Ki) on Human Receptors: hERG", "type": "binding"}, "5HT1A": {"biological_target": "T12, 5HT1A (Homo sapiens, UniProt P08908)", "T12 sequence (P08908 1-422)": "T1 sequence (P08908 1-422)", "assay": "Functional Potency on Human Receptors: 5HT1A", "type": "biochemical", "conditions": "human receptor"}, "α2C [9]": {"biological_target": "T2, α2C", "assay": "Functional Potency (IC50) on Human Receptors: α2C", "type": "biochemical", "conditions": "human receptor"}, "α2A [10]": {"biological_target": "T3, α2A", "assay": "Functional Potency (IC50) on Human Receptors: α2A", "type": "biochemical", "conditions": "human receptor"}, "5HT2A [11]": {"biological_target": "T5, 5HT2A", "assay": "Functional Potency (IC50) on Human Receptors: 5HT2A", "type": "biochemical", "conditions": "human receptor"}, "D2 [12]": {"biological_target": "T4, D2", "assay": "Functional Potency (IC50) on Human Receptors: D2", "type": "biochemical", "conditions": "human receptor"}, "D1 [13]": {"biological_target": "T8, D1", "assay": "Functional Potency (IC50) on Human Receptors: D1", "type": "biochemical", "conditions": "human receptor"}, "5HT2C [14]": {"biological_target": "T6, 5HT2C", "assay": "Functional Potency (IC50) on Human Receptors: 5HT2C", "type": "biochemical", "conditions": "human receptor"}, "H1 [15]": {"biological_target": "T7, H1", "assay": "Functional Potency (IC50) on Human Receptors: H1", "type": "biochemical", "conditions": "human receptor"}, "hERG [16]": {"biological_target": "T11, hERG", "assay": "Functional Potency (IC50) on Human Receptors: hERG", "type": "biochemical"}}, "data": [{"smiles": "C[C@@]1(O)CC2CC1[C@@H]1C(=O)N(CC3CCCC[C@H]3CN3CCN(c4nsc5ccccc45)CC3)C(=O)[C@H]21", "note": "(stereo in doubt) [(3aS,4S,5R,7S,7aR)-2-[((1R,2R)-2-{[4-(1,2-benzisothiazol-3-yl)piperazin-1-yl]methyl}cyclohexyl)methyl]-5-hydroxy-5-methylhexahydro-1H-4,7-methanoisoindole-1,3-dione]", "values": [{"measurement": "Ki", "setting": "5HT1A (native)", "result": 0.008, "unit": "µM"}, {"measurement": "Ki", "setting": "α2C [1]", "result": 0.009, "unit": "µM"}, {"measurement": "Ki", "setting": "α2A [2]", "result": 0.059, "unit": "µM"}, {"measurement": "Ki", "setting": "D2 [3]", "result": 0.001, "unit": "µM"}, {"measurement": "Ki", "setting": "5HT2A [4]", "result": "< 0.01", "unit": "µM"}, {"measurement": "Ki", "setting": "D3", "result": 0.002, "unit": "µM"}, {"measurement": "Ki", "setting": "5HT2C [5]", "result": 0.016, "unit": "µM"}, {"measurement": "Ki", "setting": "H1 [6]", "result": 0.371, "unit": "µM"}, {"measurement": "Ki", "setting": "D1 [7]", "result": 0.457, "unit": "µM"}, {"measurement": "Ki", "setting": "α1A", "result": 0.031, "unit": "µM"}, {"measurement": "Ki", "setting": "α1D", "result": 0.082, "unit": "µM"}, {"measurement": "Ki", "setting": "hERG [8]", "result": 0.644, "unit": "µM"}, {"measurement": "EC50", "setting": "5HT1A", "result": 0.098, "unit": "µM"}, {"measurement": "Functional Potency 5HT1A % max", "setting": "5HT1A; max response", "result": 77, "unit": "%"}, {"measurement": "IC50", "setting": "α2C [9]", "result": 0.16, "unit": "µM"}, {"measurement": "IC50", "setting": "α2A [10]", "result": 1.22, "unit": "µM"}, {"measurement": "IC50", "setting": "5HT2A [11]", "result": 0.032, "unit": "µM"}, {"measurement": "IC50", "setting": "D2 [12]", "result": 0.025, "unit": "µM"}, {"measurement": "IC50", "setting": "D1 [13]", "result": 1.65, "unit": "µM"}, {"measurement": "IC50", "setting": "5HT2C [14]", "result": 1.71, "unit": "µM"}, {"measurement": "IC50", "setting": "H1 [15]", "result": 3.1, "unit": "µM"}, {"measurement": "IC50", "setting": "hERG [16]", "result": 4, "unit": "µM"}]}]}
